Measurements reported in BigSolDB 2.1.

O=C(O)c1ccc(C(=O)O)cc1
solubility (mole fraction) (in 2-ethylhexanol, 313.15 K): 0.000293
solubility (mole fraction) (in 2-ethylhexanol, 318.15 K): 0.000335
solubility (mole fraction) (in 2-ethylhexanol, 323.15 K): 0.000377
solubility (mole fraction) (in 2-ethylhexanol, 328.15 K): 0.000429
solubility (mole fraction) (in 2-ethylhexanol, 333.15 K): 0.000482
solubility (mole fraction) (in 2-ethylhexanol, 338.15 K): 0.000559
solubility (mole fraction) (in 2-ethylhexanol, 343.15 K): 0.000636
solubility (mole fraction) (in 2-ethylhexanol, 348.15 K): 0.000724
solubility (mole fraction) (in 2-ethylhexanol, 353.15 K): 0.000812
solubility (mole fraction) (in 2-ethylhexanol, 358.15 K): 0.000915
solubility (mole fraction) (in 2-ethylhexanol, 363.15 K): 0.00102
solubility (mole fraction) (in DMAc, 313.15 K): 0.0155
solubility (mole fraction) (in DMAc, 318.15 K): 0.0199
solubility (mole fraction) (in DMAc, 323.15 K): 0.0243
solubility (mole fraction) (in DMAc, 328.15 K): 0.0304
solubility (mole fraction) (in DMAc, 333.15 K): 0.0365
solubility (mole fraction) (in DMAc, 338.15 K): 0.0453
solubility (mole fraction) (in DMAc, 343.15 K): 0.0541
solubility (mole fraction) (in DMAc, 348.15 K): 0.065
solubility (mole fraction) (in DMAc, 353.15 K): 0.076
solubility (mole fraction) (in DMAc, 358.15 K): 0.0823
solubility (mole fraction) (in DMAc, 363.15 K): 0.0886
solubility (mole fraction) (in DMF, 313.15 K): 0.0325
solubility (mole fraction) (in DMF, 318.15 K): 0.0337
solubility (mole fraction) (in DMF, 323.15 K): 0.035
solubility (mole fraction) (in DMF, 328.15 K): 0.0361
solubility (mole fraction) (in DMF, 333.15 K): 0.0372
solubility (mole fraction) (in DMF, 338.15 K): 0.0383
solubility (mole fraction) (in DMF, 343.15 K): 0.0394
solubility (mole fraction) (in DMF, 348.15 K): 0.0412
solubility (mole fraction) (in DMF, 353.15 K): 0.0429
solubility (mole fraction) (in DMF, 358.15 K): 0.0442
solubility (mole fraction) (in DMF, 363.15 K): 0.0455
solubility (mole fraction) (in DMSO, 313.15 K): 0.0964
solubility (mole fraction) (in DMSO, 318.15 K): 0.0989
solubility (mole fraction) (in DMSO, 323.15 K): 0.102
solubility (mole fraction) (in DMSO, 328.15 K): 0.104
solubility (mole fraction) (in DMSO, 333.15 K): 0.107
solubility (mole fraction) (in DMSO, 338.15 K): 0.108
solubility (mole fraction) (in DMSO, 343.15 K): 0.11
solubility (mole fraction) (in DMSO, 348.15 K): 0.113
solubility (mole fraction) (in DMSO, 353.15 K): 0.116
solubility (mole fraction) (in DMSO, 358.15 K): 0.118
solubility (mole fraction) (in DMSO, 363.15 K): 0.121
solubility (mole fraction) (in NMP, 313.15 K): 0.0558
solubility (mole fraction) (in NMP, 318.15 K): 0.0646
solubility (mole fraction) (in NMP, 323.15 K): 0.0736
solubility (mole fraction) (in NMP, 328.15 K): 0.0838
solubility (mole fraction) (in NMP, 333.15 K): 0.094
solubility (mole fraction) (in NMP, 338.15 K): 0.0952
solubility (mole fraction) (in NMP, 343.15 K): 0.0963
solubility (mole fraction) (in NMP, 348.15 K): 0.0974
solubility (mole fraction) (in NMP, 353.15 K): 0.0985
solubility (mole fraction) (in NMP, 358.15 K): 0.0999
solubility (mole fraction) (in NMP, 363.15 K): 0.101
solubility (mole fraction) (in pyridine, 313.15 K): 0.0767
solubility (mole fraction) (in pyridine, 318.15 K): 0.0767
solubility (mole fraction) (in pyridine, 323.15 K): 0.0766
solubility (mole fraction) (in pyridine, 328.15 K): 0.0768
solubility (mole fraction) (in pyridine, 333.15 K): 0.0769
solubility (mole fraction) (in pyridine, 338.15 K): 0.077
solubility (mole fraction) (in pyridine, 343.15 K): 0.077
solubility (mole fraction) (in pyridine, 348.15 K): 0.0774
solubility (mole fraction) (in pyridine, 353.15 K): 0.0778
solubility (mole fraction) (in pyridine, 358.15 K): 0.0783
solubility (mole fraction) (in pyridine, 363.15 K): 0.0787
